Values quoted from earlier work, collected in US8124611B2, “Inhibitors of the mutant form of kit” (Novartis AG, priority 2003, dated 2012).

Target: KIT D816V mutation (Homo sapiens, UniProt P10721, D816V)
Conditions: D816V mutation commonly found in systemic mastocytosis

KIT D816V mutation, sequence (P10721 26-976 D816V): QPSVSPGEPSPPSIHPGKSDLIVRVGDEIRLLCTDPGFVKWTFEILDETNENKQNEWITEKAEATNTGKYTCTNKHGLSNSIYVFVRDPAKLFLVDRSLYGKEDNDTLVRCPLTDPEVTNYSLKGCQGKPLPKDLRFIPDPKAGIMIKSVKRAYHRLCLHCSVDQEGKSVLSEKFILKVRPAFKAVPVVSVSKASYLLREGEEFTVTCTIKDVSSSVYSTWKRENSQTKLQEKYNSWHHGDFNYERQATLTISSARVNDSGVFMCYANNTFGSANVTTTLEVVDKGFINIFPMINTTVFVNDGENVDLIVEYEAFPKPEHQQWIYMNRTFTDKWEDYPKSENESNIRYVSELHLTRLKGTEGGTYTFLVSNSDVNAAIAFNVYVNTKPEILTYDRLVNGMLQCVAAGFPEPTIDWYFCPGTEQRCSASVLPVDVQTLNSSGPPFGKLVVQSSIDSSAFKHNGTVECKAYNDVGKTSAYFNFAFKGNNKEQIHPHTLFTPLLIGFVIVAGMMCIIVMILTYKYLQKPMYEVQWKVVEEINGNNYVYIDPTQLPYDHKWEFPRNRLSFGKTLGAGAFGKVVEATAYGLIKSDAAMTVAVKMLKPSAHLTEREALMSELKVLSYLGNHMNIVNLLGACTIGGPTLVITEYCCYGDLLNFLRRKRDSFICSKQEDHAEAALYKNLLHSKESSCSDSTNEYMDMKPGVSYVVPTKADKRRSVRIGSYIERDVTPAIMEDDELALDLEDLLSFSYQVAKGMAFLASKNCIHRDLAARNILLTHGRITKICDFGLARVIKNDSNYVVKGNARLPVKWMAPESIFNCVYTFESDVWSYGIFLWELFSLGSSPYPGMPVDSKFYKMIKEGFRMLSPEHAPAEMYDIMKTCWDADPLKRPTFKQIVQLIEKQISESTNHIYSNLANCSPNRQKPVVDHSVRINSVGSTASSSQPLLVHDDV

Q: With `Cc1ccc(NC(=O)c2ccc(CN3CCN(C)CC3)cc2)cc1Nc1nccc(-c2cccnc2)n1` [Imatinib] as the compound, how does the “activity against mutant forms of KIT” value read?
A: inactive or significantly less active
